# “Also recorded” adds a separate entry of the source. Counter-ions that a name gives are not always drawn.
# Experiments:
# [1] = tested on: rats; assay: Locomotor (general motor) activity, electronic activity monitor; type: in vivo, rat (male Sprague-Dawley)
# Experimental: (§1) Male Sprague-Dawley (Charles River Labs.) rats (initially 175-200 g) were housed four per cage, with free access to food and water, under controlled lighting (on 7:00 a.m. to 7:00 p.m.), constant temperature 21°-23° C. and controlled humidity (40-50%). Aporphines were administered, as described below, freshly dissolved in 1 mM citric acid mixed with 0.9% (w/v) saline (1:4, vols.); this solvent was also used as a vehicle ("placebo") control. Haloperidol was given in the same medium; 2-diethyl aminoethyl-2,2 diphenylvalerate HCl (SKF-525A) was given in saline.
# Locomotor activity was evaluated by use of a printing electronic activity monitor (EAM, Stoelting Co., Chicago, IL) within a sound-attenuated chamber, typically for 60 min., as described previously (Stewart, Campbell, Sperk and Baldessarini, 1979, Psychopharmacology 60 281-289; Campbell and Baldessarini, 1981a, Psychopharmacology 73:219-222.
# In all experiments except those which evaluated the time-course of drug effects, rats were given an injection of vehicle and then allowed to rest for 15 min. to adapt to nonspecific arousal effects, prior to a second injection of test agent (or placebo) and immediate behavioral testing. Behavioral data were evaluated by Student's t-test and are always expressed as mean ±SEM.
# Data are mean values ±SEM (N=4 to 8 rats per condition). Animals were pretreated with SKF-525A (40 mg/kg, i.p.) or its vehicle 30 min before MDO-NPA (in the doses noted, from 0 to 3 mg/kg, i.p.). Activity was then monitored electronically for an hour after the low doses of MDO-NPA (data in counts/hour), or rated for stereotypy every 10 min for an hour after higher doses. N.D. indicates "not determined." (*) Indicates a significant difference by t-test between control and oxidase inhibitor-pretreated rats (p<0.01).
# Data are mean values ±SEM (N=3 to 6 rats per condition) for effects of seven aporphine compounds (R=substituents, keyed to the structure above). Full chemical names for all compounds are provided in Methods. Ratings are expressed as percent of the maximum possible score (100%)=18.0) of stereotypy (Placebo-injected controls yielded scores of 4.4±2.5%); and as the percent of control locomotor activity (100%=430±86 counts/hr). Data are provided for a dose of 10 mg/kg (i.p.), although doses of 1 and 5 mg/kg were also tested.
# [2] = tested on: gastric acid output; assay: Cysteamine induced gastric acid output; type: in vivo, rat; details: for INITIAL OUTPUT (gastric acid): at opening of gastric fistula, control 187 ± 20; for Gastric acid output, 1 hr: control 68 ± 17; for Gastric acid output, 6 hr: control 91 ± 12; for Gastric acid output, 7 hr: control 99 ± 10; for Gastric acid output, 5 hr: control 104 ± 18; for Gastric acid output, 4 hr: control 110 ± 25; for Gastric acid output, 3 hr: control 141 ± 32; for Gastric acid output, 2 hr: control 195 ± 48; for TOTAL OUTPUT (gastric acid): control 1043 ± 102
# Experimental: (A) In addition, rats of all groups were given cysteamine HCL, 15 mg. 100
# g p.o. × 1, 30 min. after (the last dose of) MDO--NPA.
# (B) At the opening of gastric fistula
# [3] = tested on: rats; assay: Catalepsy (maintenance of abnormal posture on bar); type: in vivo, rat (male Sprague-Dawley); details: i.p.
# Experimental: as §1
# Catalepsy was assessed as described in detail elsewhere (Campbell and Baldessarini, 1981a; 1981b, Life Sciences 29 1341-46). Briefly, rats were evaluated every 10 min. by timing (stopwatch) their maintenance of an abnormal posture with forelimbs on a 1 cm-diameter steel bar parallel to, and 8 cm above the bench, so that the rat rested on its hindquarters only; 60 sec. was taken as a maximum and nearly all normal untreated rats remained on the bar for less than 5 sec. […]
# In all experiments except those which evaluated the time-course of drug effects, rats were given an injection of vehicle and then allowed to rest for 15 min. to adapt to nonspecific arousal effects, prior to a second injection of test agent (or placebo) and immediate behavioral testing. […]
# [4] = tested on: Adenylate cyclase; assay: Adenylate cyclase stimulation (cAMP) in rat striatal homogenates; type: biochemical; details: 100 μM; control (no addition) 2.38 ± 0.14; N=4
# Text: of cAMP in rat striatal homogenates; inhibition of binding of
# [5] = tested on: duodenal ulcers; assay: Cysteamine-induced duodenal ulcer in the rat; details: for Duodenal Ulcer Intensity (Scale: 0-3): control 1.8; for Duodenal Ulcer Incidence (Positive/Total): control 10/12
# [6] = group 3: 0.1 mg/100 g × 1 day, 1 week
# [7] = group 3: 0.1 mg/100 g × 1 day, 1 week, P < 0.01
# [8] = group 3: 0.1 mg/100 g × 1 day, 1 week, P < 0.001
# [9] = group 3: 0.1 mg/100 g × 1 day, 1 week, P < 0.09
# [10] = 50 μg/100g s.c. once daily seven days
# [11] = 100 μg/100g s.c. once daily seven days
smiles,measurement,setting,value
"CCCN1CCc2cccc3c2[C@H]1Cc1ccc2c(c1-3)OCO2 [MDO-NPA, (-) 10, 11-methylenedioxy-N-n-propylnoraporphine-HCl]",minimal effective dose,"[1]; Rattus norvegicus, ip, read-out: dose producing increases in general motor activity",> 2 µmol/kg
same,Activity,"[1]; SKF-525A 40 mg/kg i.p. 30 min before MDO-NPA 0.05 mg/kg i.p., p<0.01 vs control",425 ± 40 counts/hour
same,Activity,"[1]; SKF-525A 40 mg/kg i.p. 30 min before MDO-NPA 0.10 mg/kg i.p., p<0.01 vs control",415 ± 29 counts/hour
same,Activity,"[1]; SKF-525A 40 mg/kg i.p. 30 min before MDO-NPA 0.20 mg/kg i.p., p<0.01 vs control",410 ± 32 counts/hour
same,Activity,[1]; SKF-525A 40 mg/kg i.p. 30 min before MDO-NPA 0.30 mg/kg i.p.,440 ± 38 counts/hour
same,Activity,"[1]; control (vehicle pretreated), MDO-NPA 0.05 mg/kg i.p.",190 ± 20 counts/hour
same,Activity,"[1]; control (vehicle pretreated), MDO-NPA 0.10 mg/kg i.p.",130 ± 30 counts/hour
same,Activity,"[1]; control (vehicle pretreated), MDO-NPA 0.20 mg/kg i.p.",260 ± 33 counts/hour
same,Activity,"[1]; control (vehicle pretreated), MDO-NPA 0.30 mg/kg i.p.",435 ± 29 counts/hour
same,"dose of maximum effect, inhibition of locomotor activity","[1]; i.p., about 0.1 mg/kg",0.3 µmol/kg
same,INITIAL OUTPUT (gastric acid),"[2]; group 2: × 1 day, P < 0.001",47 ± 13 μ Eq
same,"Gastric acid output, 1 hr",[2]; group 2: × 1 day,28 ± 18 μ Eq
same,"Gastric acid output, 6 hr","[2]; group 2: × 1 day, P < 0.01",20 ± 11 μ Eq
same,"Gastric acid output, 7 hr","[2]; group 2: × 1 day, P < 0.001",18 ± 6 μ Eq
same,"Gastric acid output, 5 hr","[2]; group 2: × 1 day, P < 0.01",10 ± 3 μ Eq
same,"Gastric acid output, 4 hr","[2]; group 2: × 1 day, P < 0.09",17 ± 8 μ Eq
same,"Gastric acid output, 3 hr",[2]; group 2: × 1 day,81 ± 40 μ Eq
same,"Gastric acid output, 2 hr",[2]; group 2: × 1 day,66 ± 29 μ Eq
same,TOTAL OUTPUT (gastric acid),"[2]; group 2: × 1 day, P < 0.001",288 ± 67 μ Eq
same,INITIAL OUTPUT (gastric acid),[2]; [6],120 ± 36 μ Eq
same,"Gastric acid output, 1 hr",[2]; [6],29 + 10 μ Eq
same,"Gastric acid output, 6 hr",[2]; [7],18 ± 14 μ Eq
same,"Gastric acid output, 7 hr",[2]; [8],9 ± 4 μ Eq
same,"Gastric acid output, 5 hr",[2]; [7],17 ± 7 μ Eq
same,"Gastric acid output, 4 hr",[2]; [7],14 ± 6 μ Eq
same,"Gastric acid output, 3 hr",[2]; [9],36 ± 9 μ Eq
same,"Gastric acid output, 2 hr",[2]; [9],66 + 21 μ Eq
same,TOTAL OUTPUT (gastric acid),[2]; [8],306 ± 62 μ Eq
same,"dose of maximum effect, catalepsy",[3],0.3 µmol/kg
same,catalepsy,[3]; doses similar to those which inhibited general activity,strong catalepsy
same,Adenylate cyclase stimulation (cAMP),[4],2.92 ± 0.32 pmol/assay
same,Duodenal Ulcer Intensity (Scale: 0-3),[5]; [10],0.8
same,Duodenal Ulcer Incidence (Positive/Total),[5]; [10],4/6
same,Duodenal Ulcer Intensity (Scale: 0-3),[5]; [11],0.5
same,Duodenal Ulcer Incidence (Positive/Total),[5]; [11],3/6
same,"effect on incidence and intensity of duodenal ulcers and gastric acid output, oral",[5]; administered orally,reduces the incidence and intensity of duodenal ulcers and the gastric acid output
same,dose effective in preventing ulcers,[5]; once daily for seven days before cysteamine-hydrochloride,50 micrograms per hundred grams of body weight
same,effect on cysteamine-induced duodenal ulcers,[5]; rats given cysteamine,significant prevention of experimental duodenal ulcers; also recorded: virtually abolished
same,effect of a single high dose on duodenal ulcers,[5]; single high dose,active
